These results are taken from patent publication US7297332B2, “Protease, a gene therefor and the use thereof” (Korean Research Institute of Bioscience and Biotechnology, priority 2000, dated 2007).

Entries after “also recorded” stand apart in the source; their conditions may differ.

In this assay the test system is protease derived from Aranicola proteolyticus. The assay can be described thus: Effect of protease inhibitors on the protease (azocasein assay). The format is biochemical, Aranicola proteolyticus HY-3. The settings on record: for inhibition of the enzyme activity: 1 mM inhibitor, incubated at 37° C. for 5 minutes, azocasein substrate; for effect of metalloprotease inhibitor on protease activity: equal concentrations of inhibitors, FIG. 1. On the procedure:
Enzyme activity of the protease was measured according to the method described by Braun & Shmitz (Braun, V. & Schmitz, G., Arch. Microbiol. 124, 55-61, 1980). A substrate solution was prepared by dissolving 0.24 g of azocasein in 10 ml of 50 mM phosphate buffer (pH 7.5). The 300 □ of the substrate solution was mixed with 100 □ of bacterial culture solution and reacted at 37° C. for 30 minutes. Then, 300 □ of 10% trichloride acetate was added to the reaction solution and incubated at ambient temperature for 1 hour. The reaction solution was centrifuged at 7,000 rpm until pellet and supernatant was separated substantially. After adding 30 0 of 10% sodium hydroxide (NaOH) to the supernatant, the absorbance was measured at 420 nm. The enzymatic titer was defined as 1 unit by the 1.0 fold increment of absorbance value.
In order to examine the effects of protease inhibitors on the activity of the protease, the enzyme solution was added by 1 mM each of inhibitors enumerated below and incubated at 37° C. for 5 minutes before measuring relative enzyme activity. The inhibitors tested include antopain which is an aminopeptidase inhibitor, phosphoramidon which is a metalloendopeptidase inhibitor, pepstatin which is an aspartate protease inhibitor, E-64(L-trans-exoxysuccinyl leucylamido(4-fuanidino)butane) which is a cystein inhibitor, chymostatin which is a chymotrypsin inhibitor, leupeptin, petabloc SC, aprotinin, and PMSF which are serine protease inhibitors, phenanthroline and EDTA which are metalloprotease inhibitors.

On to `c1cnc2c(c1)ccc1cccnc12` [phenanthroline], for which the “inhibition of the enzyme activity” value was “about 70%” and the “effect of metalloprotease inhibitor on protease activity” value was “lowered; also recorded: inhibited”.

Regarding `O=C(O)CN(CCN(CC(=O)O)CC(=O)O)CC(=O)O` [EDTA], the “inhibition of the enzyme activity” value is on record as “about 30%” and the “effect of metalloprotease inhibitor on protease activity” value is recorded as “lowered; also recorded: inhibited”.
